Results taken from patent publication US9624161B2 (priority 2009, dated 2017).

Legend:
[1] = test system: treatment naïve male Cynomolgus monkeys; test: Suppression and recovery of androgen levels in intact male monkeys, 30 mg/kg oral for 7 days; format: in vivo, Cynomolgus monkey; parameters: Circulating androgen level (mean±SEM) / Circulating androgen level after recovery: unit not given here
Procedure: The effect of Compound IV on suppression and recovery of testosterone levels in intact male monkeys was evaluated in conjunction with an oral pharmacokinetic study. Three treatment naïve male Cynomolgus monkeys (2 to 3 years old) were administered Compound IV at 30 mg/kg daily by oral gavage for 7 consecutive days. Blood samples were collected and divided into serum and plasma for testosterone and Compound IV quantitative measurements, respectively.

[2] = test system: rats; test: Single and repeated oral dose toxicity in rats (up to 28 days); format: in vivo, rat
From the text: Compound IV was well-tolerated by rats and dogs after single and repeated oral administration (up to 28 days).

[3] = test system: human platelets; test: In vitro human platelet aggregation assay (thrombin-induced)
[4] = test system: intact and ORX rats; test: Prostate size in intact and ORX rats, Compound IV versus DES; format: in vivo, rat; conditions: rats (FIG. 11)
[5] = test system: men with advanced prostate cancer; test: Study 2: Phase 2 trial in men with advanced prostate cancer, Compound IV 1000 or 2000 mg daily versus leuprolide depot; format: in vivo, human; conditions: for Castrated (%) at Day 28 / Castrated (%) on both Day 28 and Day 60 / No. Castrated at Day 28 / No. Castrated on both Day 28 and Day 60: ITT; for Subjects that achieved castration (total T<50 ng/dL) by Day 60: subjects that reached Day 60; for % Reduction on PSA at Day 28 / Mean Free T at Day 28 / Mean Total T at Day 28: subjects castrated on both day 28 and day 60; for Castration (%): patients receiving >14 days; for Median free testosterone: Day 120; for Median increase in SHBG: Day 90
Procedure: This was a prospective, randomized 1:1:1, Phase 2 open-label, multicenter, trial comprised of men with advanced prostate cancer (n=159) initiating ADT with either oral daily doses of 1000 mg Compound IV, oral daily doses of 2000 mg Compound IV, or leuprolide depot (Lupron Depot® 4 month). It was conducted according to the Declaration of Helsinki, approved by appropriate research ethics committees, and each patient provided signed informed consent prior to registration and randomization. Patient demographlics are outlined in Table 24.
The trial required each subject to remain on the study for at least 60 days. […] Subjects that achieved castration by day 60 continued for up to 360 days to assess the safety of Compound IV over this dosing duration and to assess the maintenance of total testosterone levels ≦50 ng/dL.
The major inclusion criteria for the trial were: Males between 45-80 years of age; ECOG ≦2; screening serum total testosterone ≧150 ng/dL; no prior ADT (medical or surgical) unless the subject had been treated with LHRH agent for ≦6 months duration and that treatment was ≧1 years prior to screening.
The primary endpoint of the clinical trial was the proportion of patients that achieve ≦50 ng/dL total testosterone by Day 60. Secondary efficacy endpoints evaluated included serum concentrations of free testosterone, PSA, SHBG, safety and tolerability of Compound IV, incidence and frequency of hot flashes, serum bone turnover markers [bone specific alkaline phosphatase (BSAP) and c-terminal telopeptide (CTX)] and IGF-1 levels, an indicator of insulin resistance.
All serum hormone and PSA measurements were performed by a central laboratory utilizing standard techniques. Serum total testosterone concentrations were determined using a validated liquid chromatography-tandem mass spectrometry (LC/MS-MS) method. This is the assay platform that is current utilized for total testosterone by most major laboratories and provides values which are more accurate at the lower levels of testosterone found in women, children, hypogonadal men, and men on ADT. The percent free testosterone was determined by equilibrium dialysis. Free testosterone concentrations were calculated as the product of (total testosterone by LC/MS/MS) and (free fraction by equilibrium dialysis). This combination of approaches is considered to be the gold standard with which to measure free testosterone with excellent accuracy and validity (sensitivity and specificity).
Hot flash assessments were performed utilising a standard instrument to measure the frequency and severity of hot flashes, and data were compiled at baseline, Day 28 and Day 90. The men reported as experiencing hot flashes were those indicating any in the period between the respective time point and the prior patient visit. CTX (pg/ml) assayed by an electrochemiluminescent immunoassay and BSAP (U/L) assayed by immunoenzymatic methodology were measured as indicators of bone turnover. Serum IGF-1 levels were measured by liquid chromatography/mass spectrometry (LC/MS) at the same time each day (within a +/−60 minute window).
Simple descriptive statistics and graphics were used to present the characteristics of the study population. One way Analysis of Variance (PROC GLM with CONTRAST statement) methods were used to compare total testosterone percent change from baseline to Day 28, Day 60 and Day 90. Kaplan Meier survival analysis was used to estimate the proportion of subjects that reached castrate levels by Day 60 in each treatment arm based upon time to total testosterone of ≦50 ng/dL. Fisher Exact tests were used to compare rate of hot flashes at Day 28 and Day 90 among the two Compound IV and the leuprolide arms. One way ANOVA methods were also used to compare CTX and BSAP changes from baseline to Day 120 between treatment groups. The intent-to-treat (ITT) population consisted of all randomized patients who received at least one dose of Compound IV or leuprolide depot. […]

[6] = 1000 mg Compound IV, baseline to Day 120
[7] = preliminary analysis, Compound IV 2000 mg daily (41 assessed) or Lupron Depot (49 assessed)

For `O=C(c1ccc(O)c(F)c1)N(c1ccc(O)cc1)c1ccc(F)cc1` [Compound IV, 3-fluoro-N-(4-fluorophenyl)-4-hydroxy-N-(4-hydroxyphenyl)benzamide], the “Circulating androgen level after recovery” value ([1]; 30 mg/kg daily oral 7 days, then 18-day drug-free recovery) was 1757.7±369.5, the “Decrease of circulating androgen levels compared to baseline” value ([1]; 30 mg/kg daily oral, 7 days, three monkeys) was “up to 47%” and the “Circulating androgen level (mean±SEM)” value ([1]; 30 mg/kg daily oral, Day 2) was 997±104. For the same molecule, the “Circulating androgen level (mean±SEM)” value ([1]; 30 mg/kg daily oral, Day 6) was 852±136, the “Tolerability after single and repeated oral administration” value [2] was “well-tolerated” and the “Procoagulatory activity compared with DES” value [3] was “much lower procoagulatory activity than DES”. The “Reduction of prostate size” value [4] was “as effective as DES”, the “Median free testosterone in castrate men (total testosterone ≦50 ng/dL)” value ([5]; 1000 mg) was 0.4 pg/mL and the “Castrated (%) at Day 28” value ([5]; 1000 mg Compound IV (n = 53)) was 49%. For the same molecule, the “Castrated (%) on both Day 28 and Day 60” value ([5]; 1000 mg Compound IV (n = 53)) was 30%, the “No. Castrated at Day 28” value ([5]; 1000 mg Compound IV (n = 53)) was 26 and the “No. Castrated on both Day 28 and Day 60” value ([5]; 1000 mg Compound IV (n = 53)) was 16. For the same molecule, the “Subjects that achieved castration (total T<50 ng/dL) by Day 60” value ([5]; 1000 mg Compound IV arm) was 43.4%, the “Bone specific alkaline phosphatase (BSAP) percentage change” value [5, 6] was −26.3% and the “C-terminal telopeptides (CTX) percentage change” value [5, 6] was −55.3%. For the same molecule, the “% Reduction on PSA at Day 28” value ([5]; 1000 mg Compound IV) was 84%, the “Mean Free T at Day 28” value ([5]; 1000 mg Compound IV) was 1.0 ± 0.8 pg/mL and the “Mean Total T at Day 28” value ([5]; 1000 mg Compound IV) was 25 ± 15 ng/dL. For the same molecule, the “Castration (%)” value ([5]; 1000 mg QD, D28) was 50%, the “Castration (%)” value ([5]; 1000 mg QD, D60) was 59.4% and the “Castration (%)” value ([5]; 1000 mg QD, Ever) was 61.5%. The Median free testosterone ([5]; 1000 mg arm) was 0.4 pg/mL, the “Subjects with a venous thromboembolism event (VTE)” value ([5]; 1000 mg dose arm) was 9 subjects and the “Median increase in SHBG” value ([5]; 1000 mg) was 495%. The “Median free testosterone in castrate men (total testosterone ≦50 ng/dL)” value ([5]; 2000 mg) was 0.3 pg/mL, the “Castrated (%) at Day 28” value ([5]; 2000 mg Compound IV (n = 55)) was 56% and the “Castrated (%) on both Day 28 and Day 60” value ([5]; 2000 mg Compound IV (n = 55)) was 51%. The “No. Castrated at Day 28” value ([5]; 2000 mg Compound IV (n = 55)) was 31, the “No. Castrated on both Day 28 and Day 60” value ([5]; 2000 mg Compound IV (n = 55)) was 28 and the “Subjects that achieved castration (total T<50 ng/dL) by Day 60” value ([5]; 2000 mg Compound IV arm) was 63.6%. The “Bone specific alkaline phosphatase (BSAP) percentage change” value ([5]; 2000 mg Compound IV, baseline to Day 120) was −22.6%, the “% Reduction on PSA at Day 28” value ([5]; 2000 mg Compound IV) was 73% and the “Mean Free T at Day 28” value ([5]; 2000 mg Compound IV) was 0.7 ± 0.7 pg/mL. The “Mean Total T at Day 28” value ([5]; 2000 mg Compound IV) was 19 ± 9 ng/dL, the “Castration (%)” value ([5]; 2000 mg QD, D28) was 31% and the “Castration (%)” value ([5]; 2000 mg QD, D60) was 79.6%. The “Castration (%)” value ([5]; 2000 mg QD, Ever) was 84.6%, the Median free testosterone ([5]; 2000 mg arm) was 0.3 pg/mL and the “Subjects with a venous thromboembolism event (VTE)” value ([5]; 2000 mg dose arm) was 2 subjects. The “Median increase in SHBG” value ([5]; 2000 mg) was 583%, the “Percentage of treated ADT naïve patients (castrate population) below the Free T cutoff of 0.5 pg/ml” value ([5]; 28 days on therapy) was 28.3% and the “Percentage of treated ADT naïve patients (castrate population) below the Free T cutoff of 0.5 pg/ml” value ([5]; 45 days on therapy) was 50.9%. For the same molecule, the “Percentage of treated ADT naïve patients (castrate population) below the Free T cutoff of 0.5 pg/ml” value ([5]; 120 days on therapy) was 58.1%, the “Rate of hot flashes relative to that in the leuprolide treated group” value ([5]; Day 90 visits) was at most 25% and the “PSA level reached on average” value ([5]; Study 2 (FIG. 35)) was under 0.2 µg/L. For the same molecule, the “Change in serum IGF-1 level” value ([5]; Study 2, 1000 mg daily (n = 53), Day 1 to Day 28) was -75.2 ± 25.6 ng/mL, the “Change in serum IGF-1 level” value ([5]; Study 2, 1000 mg daily (n = 53), Day 1 to Day 60) was -73.7 ± 29.2 ng/mL and the “Change in serum IGF-1 level” value ([5]; Study 2, 1000 mg daily (n = 53), Day 1 to Day 90) was -73.1 ± 25.1 ng/mL. For the same molecule, the “Change in serum IGF-1 level” value ([5]; Study 2, 1000 mg daily (n = 53), Day 1 to Day 360) was -35.2 ± 40.5 ng/mL, the “Change in serum IGF-1 level” value ([5]; Study 2, 2000 mg daily (n = 55), Day 1 to Day 28) was -78.6 ± 38.3 ng/mL and the “Change in serum IGF-1 level” value ([5]; Study 2, 2000 mg daily (n = 55), Day 1 to Day 60) was -77.7 ± 39.9 ng/mL. The “Change in serum IGF-1 level” value ([5]; Study 2, 2000 mg daily (n = 55), Day 1 to Day 90) was -72.7 ± 24.9 ng/mL, the “Change in serum IGF-1 level” value ([5]; Study 2, 2000 mg daily (n = 55), Day 1 to Day 360) was -33.4 ± 45.2 ng/mL and the “Mean SHBG for PSA responders (>50% reduction)” value ([5]; Study 2, all patients (FIG. 37)) was 399%+85. For the same molecule, the “Reduction in reported hot flashes” value ([5]; day 90) was “greater than 4 fold”, the “Increase in SHBG levels in men that responded” value ([5]; in vivo) was 200-600% and the “Number of Subjects that Experienced a Hot Flash” value [5, 7] was 2. For the same molecule, the “Percent of Subjects that Experienced a Hot Flash” value [5, 7] was 5%, the “Induction of baseline SHBG” value ([5]; treatment naive patients (Study 2 and Study 5), after 28 days) was 150-700% and the “Patients with at least a 50% reduction in % FreeT” value ([5]; treatment naïve patients (Studies 2 and 5), after 7 days of therapy) was 81%. The “Patients with both at least a 50% reduction in % FreeT and a 50% reduction in PSA from baseline” value ([5]; treatment naïve patients (Studies 2 and 5), after a month) was 80%, the “Molar ratio of SHBG to Total T relative to leuprolide acetate treated patients” value ([5]; treatment naïve patients, after 28 days) was 3-7 fold and the “Drop in % FreeT” value ([5]; treatment naïve patients, day 28) was 70%.
